# Data published in patent publication US5798375A, “Treatment of arteriosclerosis and xanthoma” (Sankyo Company, Limited, priority 1995, dated 1998).
# Experiments:
# diabetic animal model = settings: in vivo in a diabetic animal model; cited from earlier work
# WHHL rabbits [1] = assay: Example 2: average thickening of intima in aorta; assay type: in vivo, Male WHHL rabbits; set-up: Average thickening of intima, Aortic Arch, percentage against the control group / Average thickening of intima, Total Aorta, percentage against the control group: concentration or dose not given beside the values
# Method: (§1) Each test compound was administered for eight months to the rabbits in the form of an aqueous suspension (0.5% carboxymethylcellulose added). In the control group, a 0.5% carboxymethylcellulose solution only was administered.
# The values actually measured are represented as the mean value plus or minus a standard error (μm). The numbers in parentheses represent the percentage intimal thickening against the control group. A significant difference was observed between Groups D and F at the aortic arch, and between Groups C and E and between Groups D and F over the total aorta (p<0.05) under the Mann-Whitney's U-Test.
# The average thickening of the intima is calculated by the cross-sectional area of the aortic tunica intima one section from the arch and two sections from the thoracic and abdominal portions, divided by the length of the tunica media.
# [2] = tested on: Male New Zealand white rabbits; assay: Example 3: regression of established atherosclerotic lesions in the cholesterol-fed rabbit model; assay type: in vivo
# Method: The rabbits were grouped randomly (3-9 animals per group) and the test samples were administered orally for two months, while they were fed with a normolipidaemic diet. […] The results are shown in terms of the percentage of lesion area in the thoracic aorta.
# [3] = Example 2: serum cholesterol in WHHL rabbits; assay type: in vivo, Male WHHL rabbits; settings: Groups C and D (pioglitazone 20 mg/kg; Compound A 10 mg/kg)
# Method: as §1
# WHHL rabbits [4] = assay: Example 2: incidence and degree of xanthoma of the four legs; assay type: in vivo, Male WHHL rabbits; set-up: Frequency of massive xanthoma: unit not given here
# Method: as §1
# The incidence and the degree of xanthoma of the four legs were measured.
# WHHL rabbits [5] = assay: Example 2: aortic cholesterol content; assay type: in vivo, Male WHHL rabbits
# Method: as §1
# The aortic cholesterol content was measured The tunica media and tunica intima at the aortic arch and at the thoracic and abdominal aorta were peeled away with tweezers and cut into pieces. The pieces were extracted with a 2:1 by volume mixture of chloroform and methanol.
# The chloroform phase was separated and evaporated to dryness and the residue was dissolved in isopropanol. The total cholesterol and the free cholesterol were measured by a conventional enzymatic method.
# Data are expressed by the mean plus or minus standard error (mg/g tissue). The values in parentheses indicate the percentage against the control. A significant difference against the control group was observed by the unpaired student t-test: […]
# WHHL rabbits [6] = assay: Example 2: percentage area covered by lesions, aortic arch and whole aorta; assay type: in vivo, Male WHHL rabbits; set-up: Lesion Area, Aortic Arch, percentage against the control group / Lesion Area, Total Aorta, percentage against the control group: concentration or dose not given beside the values; settings: oral, eight months
# Method: as §1
# The values actually measured are represented by the mean value plus or minus standard error. The numbers in parentheses represent the percentage lesion area against the control group.
# *p<0.05, **p<0.01; significant difference against the control group under the [Mann-Whitney's U-Test A significant difference (p<0.05) was observed between Groups B and F, between Groups C and E and between Groups D and F at the aortic arch, and between Groups C and E over the total aorta.
# [7] = oral, eight months, control 100 (14/14), *p < 0.05, **p < 0.01 vs control
structure (smiles),measurement,setting,value
"CN(CCOc1ccc(CC2SC(=O)NC2=O)cc1)c1ccccn1 (stereo not shown) [BRL-49653, 5-{4-[2-methyl-2-(pyridin-2-ylamino)ethoxy]benzyl}-2,4-thiazolidinedione]",potency higher than that of troglitazone,diabetic animal model,about 100 times
"CC(=NOCCOc1ccc(CC2SC(=O)NC2=O)cc1)c1ccc(-c2ccccn2)cc1 (stereo not shown) [Compound A, 5-(4-{2-[1-(4-2'-pyridyl-phenyl)ethylideneaminooxy]ethoxy}benzyl)thiazolidine-2,4-dione]",suppression of intimal thickening,WHHL rabbits [1]; combinations compared with Groups C and D,no suppression of hypertrophy
same,"Average thickening of intima, Aortic Arch, percentage against the control group",WHHL rabbits [1]; number in parentheses,123%
same,"Average thickening of intima, Total Aorta, percentage against the control group",WHHL rabbits [1]; number in parentheses,105%
same,"Average thickening of intima in aorta, Total Aorta","WHHL rabbits [1]; oral, eight months, pravastatin 50, pioglitazone 20, Compound A 10 mg/kg, mean ± standard error, control 154 ± 33",162 ± 22 μm
same,"Average thickening of intima in aorta, Aortic Arch","WHHL rabbits [1]; oral, eight months, pravastatin 50, pioglitazone 20, Compound A 10 mg/kg, mean ± standard error, control 237 ± 63",291 ± 51 μm
same,"Rate of lesion area, against the control group","[2]; 2.5 mg/kg, figure in parentheses",93
same,Rate of lesion area,"[2]; thoracic aorta, 2.5 mg/kg oral, two months, mean ± standard error, control 29 ± 20",27 ± 7%
same,reduction of the serum cholesterol levels,[3],no reduction
same,Frequency of massive xanthoma,"WHHL rabbits [4]; control 57, *p < 0.05, **p < 0.01 vs control",21
same,incidence of xanthoma,WHHL rabbits [4]; forelegs and hindlegs,slightly less frequent incidence of xanthoma
same,Distribution of severity of lesion: (-) no lesions,"WHHL rabbits [4]; number of legs, control 0",3
same,Distribution of severity of lesion: (+++) severe lesion,"WHHL rabbits [4]; number of legs, control 6",0
same,Distribution of severity of lesion: (++) moderate lesion,"WHHL rabbits [4]; number of legs, control 10",6
same,Distribution of severity of lesion: (+) slight lesion,"WHHL rabbits [4]; number of legs, control 12",19
same,"Incidence of xanthoma, Forelegs",WHHL rabbits [4]; [7],93%
same,"Incidence of xanthoma, Hindlegs",WHHL rabbits [4]; [7],86%
same,"Incidence of xanthoma, Total","WHHL rabbits [4]; oral, eight months, control 100 (28/28), *p < 0.05, **p < 0.01 vs control",89%
same,"Cholesterol level of Thoracic and Abdominal Aorta, Esterified","WHHL rabbits [5]; mean ± standard error, control 5.3 ± 1.7",4.9 ± 0.9 mg/g tissue
same,"Cholesterol Content of Aortic Arch, Esterified","WHHL rabbits [5]; mean ± standard error, control 6.5 ± 1.4, *p < 0.05",4.5 ± 1.3 mg/g tissue
same,"Cholesterol level of Thoracic and Abdominal Aorta, Free","WHHL rabbits [5]; mean ± standard error, control 14.8 ± 2.3, *p < 0.05 vs control",9.2 ± 1.0 mg/g tissue
same,"Cholesterol level of Thoracic and Abdominal Aorta, Total","WHHL rabbits [5]; mean ± standard error, control 20.1 ± 2.3, *p < 0.05, **p < 0.02 vs control",14.0 ± 1.7 mg/g tissue
same,"Cholesterol Content of Aortic Arch, Free","WHHL rabbits [5]; mean ± standard error, control 20.6 ± 2.9",16.9 ± 1.8 mg/g tissue
same,"Cholesterol Content of Aortic Arch, Total","WHHL rabbits [5]; mean ± standard error, control 27.1 ± 3.3",21.4 ± 0.7 mg/g tissue
same,"Cholesterol Content of Aortic Arch, Esterified, percentage against the control",WHHL rabbits [5]; number in parentheses,69%
same,"Cholesterol Content of Aortic Arch, Free, percentage against the control",WHHL rabbits [5]; number in parentheses,82%
same,"Cholesterol Content of Aortic Arch, Total, percentage against the control",WHHL rabbits [5]; number in parentheses,79%
same,"Cholesterol level of Thoracic and Abdominal Aorta, Esterified, percentage against the control",WHHL rabbits [5]; number in parentheses,92%
same,"Cholesterol level of Thoracic and Abdominal Aorta, Free, percentage against the control",WHHL rabbits [5]; number in parentheses,62%
same,"Cholesterol level of Thoracic and Abdominal Aorta, Total, percentage against the control",WHHL rabbits [5]; number in parentheses,70%
same,"Lesion Area, Aortic Arch, percentage against the control group",WHHL rabbits [6]; number in parentheses,77%
same,"Lesion Area, Total Aorta, percentage against the control group",WHHL rabbits [6]; number in parentheses,76%
same,"Lesion Area, Total Aorta","WHHL rabbits [6]; pravastatin 50, pioglitazone 20, Compound A 10 mg/kg, mean ± standard error, *p<0.05, **p<0.01 vs control",38 ± 8%
same,"Lesion Area, Aortic Arch","WHHL rabbits [6]; pravastatin 50, pioglitazone 20, Compound A 10 mg/kg, mean ± standard error, control 82 ± 5, *p<0.05, **p<0.01 vs control",63 ± 9%
